This is an account of results in patent US20030064082A1, “Antipsychotic agents stimulate neurogenesis in brain” (priority 2001, published 2003).

SMILES strings stand for the structures. “Also recorded” adds a separate entry of the source.

Assay [1] concerns nerve growth factor. The settings on record: in vitro; cited from earlier work.
Assay [2] deals with nerve growth factor (NGF)-receptor. The settings on record: in vitro; cited from earlier work.
The subject of assay [3] is hippocampal dentate gyrus. Description: Double immunofluorescent staining BrdU/NeuN in the hippocampal dentate gyrus. The format is in vivo, rat. The settings on record: 21 days, single BrdU injection at day 20. The protocol: Tissue sections from intestinal mucosa, where many new cells are generated, were used as positive controls. […] Omission of the primary, anti-BrdU antibody provided additional negative controls.
(§1) In these experiments, the effect of the atypical neuroleptics in the hippocampus was evaluated. In the experiments shown in FIG. 5, rats were treated with vehicle, a typical neuroleptic (Haloperidol) (data not shown), or an atypical neuroleptic (Risperidone or Olanzapine) for 21 day s. A single injection of BrdU was given to each rat intraperitoneally at day 20. Frozen sections from rat brain were incubated with a monoclonal mouse-anti BrdU antibody and a biotinylated anti-mouse secondary antibody and developed with avidin-biotin reagent and DAB.
The animal was treated with Olanzapine for 21 day s and a single injection of BrdU given intraperitoneally at day 20. Frozen sections were incubated with sheep-anti BrdU and mouse-anti NeuN antibodies. Secondary antibodies were a combination of Cy-3-conjugated anti-sheep antibody and Cy-2-conjugated anti-mouse antibody.

For assay [4], the system named is subventricular zone (SVZ). Description: BrdU uptake (newly divided cells) in the subventricular zone of rats after 21 days of drug in drinking water. The format is in vivo, rat. The settings on record: for BrdU positive (BrdU+) cells / mean cell counts in the subventricular zone versus vehicle control: rats, 21 days in drinking water, single BrdU injection at day 20. The protocol:
Groups of age- and weight-matched (five rats per group) adult male Wistar rats were fed ad libitum for 21 day s with either Haloperidol, 0.4 mg/kg/day, Risperidone (Janssen Pharmaceutica Res Foundation, Piscataway, N.J.) 0.5 mg/kg/day, or Olanzapine (Ely Lilly and Co., Indianapolis, Ind.) 2 mg/kg/day. Control groups received vehicle only. All drugs were administered in drinking water. Water bottles were tightly sealed with leak-proof lids. Fluid intake was measured for each animal for every 3 days and fresh drug was replaced accordingly to maintain the daily dosage.
On the 20th day of treatment, bromodeoxyuridine (BrdU, Sigma Chemical, St. Louis, Mo.), dissolved in distilled water, was injected intraperitonally in a volume of 0.3 ml or less per rat to deliver a dosage of 50 mg/kg, for the labeling of newly divided cells. One day after the BrdU injection, rats were anesthetized under ketamine (100 mg/kg) and xylazine (0.6 mg/kg) anesthesia with saline cardiac perfusion. Brains were removed quickly, placed in a brain matrix, cut into 5-mm blocks, cryoprotected in O.C.T. (Tissue-Tek) compound and frozen in isopentane in liquid nitrogen. Samples were stored at −80° C. until immunostaining.
Coronal brain sections, 10 μm-thick, were cut in a cryotome. Every fifth section was processed for immunohistochemistry with anti-BrdU antibody (Sigma Chemical). Sections were fixed in 4% paraformaldehyde and denatured in 2 N HCl for 30 min. Following incubation with primary antibody, sections were developed with avidin-biotin reagents using a biotinylated donkey anti-mouse-IgG antibody (Vector Labs., Burlingame, Calif.) and diaminobenzidine (DAB). Separate investigators performed sectioning, immunostaining, and counting of BrdU-positive cells in a double-blinded manner. To ensure consistency, one investigator who was unaware of treatment and staining protocols was responsible for counting BrdU-positive cells for the entire study.
SVZ was identified as the cell layer ventral and lateral to the ependymal layer. […] Cells along the lateral aspect of the subependymal region including the dorsolateral angle of the ventricle on both left and right hemispheres, and ventral to the corpus callosum were counted. The few BrdU-positive cells present outside this area were not counted. Five sections from each animal were counted and the average total BrdU positive cells calculated. To validate the BrdU staining of newly divided cells, an antibody against proliferating cell nuclear antigen (PCNA), from Sigma Chemical, was also used.
In these experiments, the effects on neurogenesis of treatment of animals with the atypical neuroleptics, Risperidone and Olanzapine, was assessed. […] In the experiments shown in FIG. 1, rats were treated with a vehicle, a typical neuroleptic, or an atypical neuroleptic for 21 day s. A single injection of BrdU was given to each rat intraperitoneally at day 20. Sections from brains of each animal were prepared and frozen for subsequent analysis. For immunostaining, frozen sections from rat brain were incubated with a monoclonal mouse-anti BrdU antibody, and a biotinylated anti-mouse secondary antibody and developed with avidin-biotin reagent and DAB. Shown in FIG. 1 is the staining for: (A) a vehicle-treated control rat; (B) a Haloperidol-treated rat; (C) a Risperidone-treated rat; and (D) an Olanzapine-treated rat. The arrows show some of the BrdU+ cells. […]
For quantification, the number of BrdU positive cells was counted for each group. […]

Assay [5] concerns hippocampal dentate gyrus. Kind of assay: BrdU+ cell count in the hippocampal dentate gyrus. The format is in vivo, rat. The settings on record: 21 days, single BrdU injection at day 20. On the procedure:
as §1

Assay [6] has as its system superoxide dismutase. The settings on record: in vitro; cited from earlier work.
Assay [7] deals with subventricular zone (SVZ). Description: Double immunofluorescent staining BrdU/NeuN and BrdU/GFAP in the subventricular zone, weekly BrdU injection. It is filed as in vivo, rat. The settings on record: 21 days, BrdU injected at day 7, 14 and 20. An excerpt: A second study was undertaken in which 15 rats were divided in three treatment groups: Olanzapine-, haldol-, and vehicle-treated. In this study, BrdU injection was given once a week (starting on day 7) and one animal from each group was killed on days 14, 21, 28, 35, and 42. Tissue sections from this study were used in double immunofluorescent staining for either BrdU/NeuN or BrdU/glial fibrillary acidic protein (GFAP).
To evaluate whether the BrdU-positive cells expressed any neuronal or astrocytic markers, sections were subjected to double immunofluorescent staining, using sheep anti-BrdU serum (Biodesign) in combination with either a mouse anti-NeuN (as a neuronal marker, Chemicon, Tememcula, Calif.) or a rabbit anti-glial fibrillary acidic protein (an astrocytic marker, Dako, Carpinteria, Calif.), and the appropriate secondary antibodies that had been conjugated with cyanin dyes were used for visualization (Jackson Lab, Bar Harbor, Me.). […]
To evaluate whether the BrdU-positive cells express any cell type-specific marker, double immunofluoresence microscopy using either anti-NeuN or anti-GFAP antibody in combination with anti-BrdU antibody was performed. […] No BrdU+/GFAP+ cells were detected. Although the double-stained (BrdU+/NeuN+) cells were not quantified, there were clearly more BrdU+/NeuN+ in rats treated with the atypical neuroleptics than that in the untreated control rats.

For assay [8], the system named is fibroblast growth factor-2. The settings on record: in vivo; cited from earlier work.
The test system of assay [9] is cognition. Kind of assay: Cognitive performance of rats under long-term treatment. It is filed as in vivo, rat. The settings on record: up to 90 days of treatment. On the procedure: Atypical Neuroleptics Improve Cognition In this experiment, the effects of atypical neuroleptics and typical neuroleptics on cognition was evaluated. Rats were treated with either vehicle (water), Haloperidol, or Risperidone.

With `Cc1cc2c(s1)Nc1ccccc1N=C2N1CCN(C)CC1` [Olanzapine, 2-methyl-4-(4-methyl-1-piperazinyl)-10H-thieno[2,3-b] [1,5]benzodiazepine], the “expression of nerve growth factor” value in [1] was “stimulate expression”. The “expression of nerve growth factor (NGF)-receptor” value in assay [2] is recorded as “induces the expression”. For the same compound, the “NeuN (or GFAP) expression of BrdU+ cells in the hippocampus” value in assay [3] was 3 BrdU+/NeuN− cells in the subgranular layer and a BrdU+/NeuN+ cell in the apical region of the granular cell layer. In addition, the “BrdU positive (BrdU+) cells / mean cell counts in the subventricular zone versus vehicle control” value in assay [4] was “significant increase; also recorded: significantly higher”. Further, in assay [5], the “average numbers of BrdU-positive cells in the hippocampal dentate gyrus versus control group” value is “higher than the control group” and the “statistical significance of the increase in neurogenesis in the hippocampus” value was “not statistically significant”. Further, in assay [6], the “expression of superoxide dismutase” value is “induces the expression”. In [7], the “BrdU+/GFAP+ cells in the SVZ” value is reported as “No BrU+/GFAP+ cells were detected; also recorded: essentially none” and the “BrdU+/NeuN+ cells in the SVZ” value is “numerous; also recorded: increase”.

Take `CN1CCN(C2=Nc3cc(Cl)ccc3Nc3ccccc32)CC1` [Clozapine, 8-chloro-11-(4-methyl-1-piperazinyl)-5H-dibenzo [b,e] [1,4] diazepine]: the “fibroblast growth factor-2 (FGF-2) expression” value in assay [8] is listed as “increases; also recorded: modulate”.

For `Cc1nc2n(c(=O)c1CCN1CCC(c3noc4cc(F)ccc34)CC1)CCCC2` [Risperidone, 3-[2-[4-(6-fluoro-1,2-benzisoxazol-3-yl)-1-piperidinyl]ethyl]-6,7,8,9-tetrahydro-2-methyl-4H-pyrido[1,2-a]pyrimidin-4-one], the “BrdU positive (BrdU+) cells / mean cell counts in the subventricular zone versus vehicle control” value in assay [4] is reported as “significant increase; also recorded: significantly higher”. Further, in [5], the “average numbers of BrdU-positive cells in the hippocampal dentate gyrus versus control group” value is “higher than the control group” and the “statistical significance of the increase in neurogenesis in the hippocampus” value is given as “not statistically significant”. The “cognitive performance as compared to the vehicle” value in [9] is listed as “improved performance”.

In the case of `O=C(CCCN1CCC(O)(c2ccc(Cl)cc2)CC1)c1ccc(F)cc1` [Haloperidol], the “NeuN (or GFAP) expression of BrdU+ cells in the hippocampus” value in assay [3] is reported as “did not express NeuN (or GFAP)”. Besides, the “mean cell counts in the subventricular zone versus Olanzapine and Risperidone (Tukey multiple comparison)” value in assay [4] (21 days, n=5) is recorded as “significantly lower”. The figures for the “BrdU positive (BrdU+) cells / mean cell counts in the subventricular zone versus vehicle control” value in assay [4] and in assay [4] (listed as Haldolperidol) were “No differences” and “not significantly different”, respectively. Also, the “cognitive performance as compared to the vehicle” value in [9] is “significantly impaired”.
